IC50 and Activity data for six molecules are collected here from ChEMBL document CHEMBL1151841, “Dihydrostilbene derivatives from the Mongolian medicinal plant Scorzonera radiata” (J Nat Prod, 2009).

Broadly, the IC50 is the point on the concentration scale where inhibition reaches its midpoint.

The source made the active and inactive calls. The calls are words filed in the database; no cut-off is given here.

Assay [1] has as its system Radical scavenging activity. The experiment in a line: Antioxidant activity assessed as DPPH radical scavenging activity after 5 mins. The class given is functional. In general terms: The DPPH test is a chemical assay of radical scavenging.
Another assay concerns L5178Y. The assay is described as follows: Cytotoxicity against mouse L5178Y cells at 10 ug/mL by MTT assay. The class given is functional, cell-based. In general terms: Formazan colour is commonly taken as a measure of viable cells.

`Oc1ccc(/C=C/c2cc(O)cc(O)c2)cc1` [RESVERATROL]: the IC50 in assay [1] was determined as 150 µM.
In the case of `COc1cc(CCc2c(O)ccc(O[C@@H]3O[C@H](CO)[C@@H](O)[C@H](O)[C@H]3O)c2C(C)=O)ccc1O` [SCORZODIHYDROSTILBENE A], in the assay on L5178Y, the result was inactive. Moreover, the IC50 in assay [1] is 106 µM.
Consider `COc1ccc(CCc2c(O)ccc(O[C@@H]3O[C@H](CO)[C@@H](O)[C@H](O)[C@H]3O)c2C(C)=O)cc1OC` [SCORZODIHYDROSTILBENE B], for which the result in the assay with L5178Y was inactive. Further, the IC50 in assay [1] was 663 µM.
Turning to `CC(=O)c1c(O[C@@H]2O[C@H](CO)[C@@H](O)[C@H](O)[C@H]2O)ccc(O)c1CCc1ccc(O)cc1` [SCORZODIHYDROSTILBENE C], in assay [1], the half-inhibitory concentration (IC50) is 486 µM.
Consider `COc1ccc(CCc2c(O[C@@H]3O[C@H](CO)[C@@H](O)[C@H](O)[C@H]3O)ccc(O)c2C(C)=O)cc1OC` [SCORZODIHYDROSTILBENE D], for which the IC50 in assay [1] is 731 µM.
With `COc1cc(CCc2c(O)ccc(O[C@@H]3O[C@H](CO)[C@@H](O)[C@H](O)[C@H]3O)c2C(C)=O)cc(-c2cc(CCc3c(O)ccc(O[C@@H]4O[C@H](CO)[C@@H](O)[C@H](O)[C@H]4O)c3C(C)=O)cc(OC)c2O)c1O` [SCORZODIHYDROSTILBENE E], the IC50 in assay [1] stood at 103 µM.
